Data as given in PubChem BioAssay AID274 (DTP/NCI, 2004).
“And” between values parts separate entries of the source, which are not always exact repeats. Equal values may be shown once. Toxic doses and inconclusive results are not listed. The calls were made as follows: active = survival T/C of 150% or more; inactive = T/C below 125% in these data.

Tested on: BDF1 mice, Lewis lung carcinoma iv, survival T/C
Assay: NCI In Vivo Anticancer Drug Screen. Data for tumor model Lewis Lung Carcinoma (intravenous) in B6D2F1 (BDF1) mice
Conditions: endpoint: median survival time, higher = longer survival
Procedure: The antitumor activity of compounds was measured in mice bearing transplantable tumors. Survival or tumor size were measured and the results are expressed as the measurement made in the treated group (T) divided by the measurement made in the vehicle treated control group (C). The tumor model used in this assay is Lewis Lung Carcinoma (intravenous) in B6D2F1 (BDF1) mice

[1] = dose: 6.0 mg/kg/injection, schedule: Q01DX009 (ip), vehicle: Klucel (hydroxypropylcellulose) (HPC)
[2] = dose: 12.0 mg/kg/injection, schedule: Q01DX009 (ip), vehicle: Klucel (hydroxypropylcellulose) (HPC)
[3] = dose: 25.0 mg/kg/injection, schedule: Q01DX009 (ip), vehicle: saline
[4] = dose: 50.0 mg/kg/injection, schedule: Q01DX009 (ip), vehicle: saline
[5] = dose: 100.0 mg/kg/injection, schedule: Q01DX009 (ip), vehicle: saline
[6] = dose: 200.0 mg/kg/injection, schedule: Q01DX009 (ip), vehicle: saline
[7] = dose: 50.0 mg/kg/injection, schedule: Q01DX009 (ip), vehicle: saline with Tween-80
[8] = dose: 100.0 mg/kg/injection, schedule: Q01DX009 (ip), vehicle: saline with Tween-80
[9] = dose: 200.0 mg/kg/injection, schedule: Q01DX009 (ip), vehicle: saline with Tween-80
[10] = dose: 12.5 mg/kg/injection, schedule: Q01DX009 (ip), vehicle: saline
[11] = dose: 12.5 mg/kg/injection, schedule: Q01DX009 (ip), vehicle: saline with Tween-80
[12] = dose: 25.0 mg/kg/injection, schedule: Q01DX009 (ip), vehicle: saline with Tween-80
[13] = dose: 400.0 mg/kg/injection, schedule: Q01DX009 (ip), vehicle: saline with Tween-80
[14] = dose: 3.12 mg/kg/injection, schedule: Q01DX009 (ip), vehicle: saline
[15] = dose: 6.25 mg/kg/injection, schedule: Q01DX009 (ip), vehicle: saline

Measured: T/C

O=NN(CCCl)C(=O)NCCCl
active: dose: 3.0 mg/kg/injection, schedule: Q01DX009 (ip), vehicle: Klucel (hydroxypropylcellulose) (HPC) 305 % of control | [1] 163 % of control | [2] 304 % of control | dose: 20.48 mg/kg/injection, schedule: Q01DX001 (iv), vehicle: saline + alcohol 215 % of control | dose: 25.6 mg/kg/injection, schedule: Q01DX001 (iv), vehicle: saline + alcohol 268 % of control | dose: 32.0 mg/kg/injection, schedule: Q01DX001 (iv), vehicle: saline + alcohol 267 % of control | dose: 40.0 mg/kg/injection, schedule: Q01DX001 (iv), vehicle: saline + alcohol 268 % of control | dose: 50.0 mg/kg/injection, schedule: Q01DX001 (iv), vehicle: saline + alcohol 268 % of control | dose: 62.5 mg/kg/injection, schedule: Q01DX001 (iv), vehicle: saline + alcohol 268 % of control
inactive: dose: 1.5 mg/kg/injection, schedule: Q01DX009 (ip), vehicle: Klucel (hydroxypropylcellulose) (HPC) 122 % of control | dose: 10.0 mg/kg/injection, schedule: Q01DX001 (ip), vehicle: saline + alcohol 116 % of control | dose: 20.0 mg/kg/injection, schedule: Q01DX001 (ip), vehicle: saline + alcohol 124 % of control | dose: 40.0 mg/kg/injection, schedule: Q01DX001 (ip), vehicle: saline + alcohol 109 % of control | dose: 50.0 mg/kg/injection, schedule: Q01DX001 (ip), vehicle: saline + alcohol 117 % of control

NC(=O)C(F)C(N)C(=O)O (stereo not given)
inactive: [3] 99 % of control | [4] 100 % of control | [5] 103 % of control

C[N+](C)(C)c1ncnc2nc[nH]c12
inactive: [4] 103 % of control | [5] 100 % of control | [6] 103 % of control

CC[As](=O)(O)CC
inactive: [3] 105 % of control | [5] 101 % of control | [6] 86 % of control

Nc1ncnc2c1ncn2C1C=C(CO)C(O)C1O (stereo not given)
inactive: dose: 0.5 mg/kg/injection, schedule: Q01DX009 (ip), vehicle: saline 102 % of control | dose: 1.0 mg/kg/injection, schedule: Q01DX009 (ip), vehicle: saline 98 % of control | dose: 2.0 mg/kg/injection, schedule: Q01DX009 (ip), vehicle: saline 88 % of control | dose: 4.0 mg/kg/injection, schedule: Q01DX009 (ip), vehicle: saline 95 % of control

Cn1cnc([N+](=O)[O-])c1Sc1nc(N)nc2c1ncn2C1OC(CO)C(O)C1O (stereo not given)
inactive: dose: 0.78 mg/kg/injection, schedule: Q01DX009 (ip), vehicle: saline with Tween-80 97 % of control | dose: 1.56 mg/kg/injection, schedule: Q01DX009 (ip), vehicle: saline with Tween-80 116 % of control | dose: 3.13 mg/kg/injection, schedule: Q01DX009 (ip), vehicle: saline with Tween-80 105 % of control | dose: 6.25 mg/kg/injection, schedule: Q01DX009 (ip), vehicle: suspension in saline 107 % of control

CCCCCc1cc(/C=C2/N=C(c3ccc[nH]3)C=C2OC)[nH]c1C
inactive: dose: 0.25 mg/kg/injection, schedule: Q01DX009 (ip), vehicle: suspension in saline 94 % of control | dose: 0.5 mg/kg/injection, schedule: Q01DX009 (ip), vehicle: suspension in saline 100 % of control | dose: 1.0 mg/kg/injection, schedule: Q01DX009 (ip), vehicle: suspension in saline 103 % of control | dose: 2.0 mg/kg/injection, schedule: Q01DX009 (ip), vehicle: suspension in saline 103 % of control | dose: 4.0 mg/kg/injection, schedule: Q01DX009 (ip), vehicle: suspension in saline 106 % of control | dose: 8.0 mg/kg/injection, schedule: Q01DX009 (ip), vehicle: suspension in saline 109 % of control

CCCCCCCCCCCCCCCCCC1=NC(C)CC(C)(C)O1 (stereo not given)
inactive: [7] 106 % of control | [8] 103 % of control | [9] 98 % of control

OCCCN1CCCCC1CO (stereo not given)
inactive: [10] 100 % of control and 107 % of control | [3] 98 % of control and 110 % of control | [4] 97 % of control and 90 % of control | [5] 91 % of control and 106 % of control | [6] 100 % of control and 107 % of control | dose: 400.0 mg/kg/injection, schedule: Q01DX009 (ip), vehicle: saline 95 % of control and 110 % of control

COc1ccc(OC)c(/C=C/c2ccnc3ccccc23)c1
inactive: [11] 94 % of control and 100 % of control | [12] 104 % of control and 117 % of control | [7] 94 % of control and 112 % of control | [8] 102 % of control and 109 % of control | [9] 101 % of control and 109 % of control | [13] 104 % of control and 119 % of control

N=[N+]=CC(=O)OCC(N)C(=O)O (stereo not given)
inactive: dose: 0.78 mg/kg/injection, schedule: Q01DX009 (ip), vehicle: saline 98 % of control | dose: 1.56 mg/kg/injection, schedule: Q01DX009 (ip), vehicle: saline 103 % of control | [14] 100 % of control | [15] 104 % of control | [10] 117 % of control

CN1CCN(CCCN2c3ccccc3Sc3ccc(C(F)(F)F)cc32)CC1
inactive: [14] 109 % of control | [15] 120 % of control | [10] 109 % of control

O=C1NC(O)c2ccccc2O1 (stereo not given)
inactive: [11] 108 % of control | [12] 103 % of control | [7] 105 % of control | [8] 101 % of control | [9] 112 % of control | [13] 102 % of control

O=C1C2CC(Cl)C(SSC3CC4C(=O)N(SC(Cl)(Cl)C(Cl)Cl)C(=O)C4CC3Cl)CC2C(=O)N1SC(Cl)(Cl)C(Cl)Cl (stereo not given)
inactive: [1] 104 % of control | [2] 103 % of control | dose: 24.0 mg/kg/injection, schedule: Q01DX009 (ip), vehicle: Klucel (hydroxypropylcellulose) (HPC) 89 % of control | dose: 48.0 mg/kg/injection, schedule: Q01DX009 (ip), vehicle: Klucel (hydroxypropylcellulose) (HPC) 93 % of control | dose: 96.0 mg/kg/injection, schedule: Q01DX009 (ip), vehicle: Klucel (hydroxypropylcellulose) (HPC) 95 % of control

CCC1OCCN1C(C)C (stereo not given)
inactive: [3] 95 % of control | [4] 124 % of control

CC(=O)C(O)N1C(=O)C=CC1=O (stereo not given)
inactive: dose: 0.62 mg/kg/injection, schedule: Q01DX009 (ip), vehicle: saline 115 % of control | dose: 0.63 mg/kg/injection, schedule: Q01DX009 (ip), vehicle: saline 95 % of control

CCC1(O)CC2CN(CCc3c([nH]c4ccccc34)C(C(=O)OC)(c3cc4c(cc3OC)N(C)C3C(O)(C(=O)NCCO)C(O)C5(CC)C=CCN6CCC43C65)C2)C1 (stereo not given)
inactive: dose: 0.6 mg/kg/injection, schedule: Q04DX003 (ip), vehicle: saline 96 % of control | dose: 1.0 mg/kg/injection, schedule: Q04DX003 (ip), vehicle: saline 101 % of control | dose: 1.67 mg/kg/injection, schedule: Q04DX003 (ip), vehicle: saline 101 % of control | dose: 216.0 micrograms/kg/injection, schedule: Q01DX009 (ip), vehicle: saline 111 % of control | dose: 360.0 micrograms/kg/injection, schedule: Q01DX009 (ip), vehicle: saline 111 % of control

Nc1nc(=S)c2ncn(C3OC(CO)CC3O)c2[nH]1 (stereo not given)
inactive: dose: 5.0 mg/kg/injection, schedule: Q01DX009 (ip), vehicle: saline 115 % of control | dose: 10.0 mg/kg/injection, schedule: Q01DX009 (ip), vehicle: saline 101 % of control | dose: 20.0 mg/kg/injection, schedule: Q01DX009 (ip), vehicle: saline 87 % of control

COc1ccc(C(=O)c2no[n+]([O-])c2C(=O)c2ccc(OC)cc2)cc1
inactive: [11] 104 % of control | [12] 102 % of control | [7] 95 % of control | [8] 98 % of control | [9] 100 % of control | [13] 111 % of control

O=C(Nc1nncs1)c1cccs1
inactive: [11] 95 % of control | [12] 104 % of control | [7] 92 % of control | [8] 94 % of control | [9] 98 % of control | [13] 95 % of control

CC(C)n1cnc2c(Cl)ncnc21
inactive: [12] 113 % of control | [7] 95 % of control

CC(=O)CC(C)=O.CC(=O)CC(C)=O.O=N[O-].O=N[O-].[Co]
inactive: [11] 103 % of control | [12] 96 % of control | [7] 107 % of control
